Among the data in PubChem BioAssay AID540271 (Broad Institute, 2011) are AC50 values, retold here.

Activity calls are given as the source filed them. How the calls were made is not given here.

The assay has as its system S. cerevisiae expressing PfHSP40, growth rescue, plate reader. The assay is described as follows: S cerevisiae expressing PfHSP40, growth rescue, cherry pick dose confirmatory, plate reader (AID 540271).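 Further: yeast growth read after three days of incubation at 30 °C.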
For `Cc1ccc(SCCNC(=S)Nc2ccc(C)c(C)c2)cc1`, the AC50 is 6.21 µM.

In the case of `Cc1nc(SCc2ccc(OCCC(C)C)cc2)n[nH]1`, the half-maximal activity concentration (AC50) is 3.08 µM.

Take `O=C(CSc1ccc(-c2ccccn2)nn1)NC1CCCCC1`: the AC50 is 4.21 µM.

For the molecule `Nc1nc(-c2ccccc2)c(-c2ccc([N+](=O)[O-])cc2)s1`, the AC50 was 3.99 µM.

For the molecule `Cc1[nH]n(-c2ccccc2)c(=O)c1/C=N/Nc1nncc(-c2ccccc2)n1`, the AC50 is 7.15 µM.

Take `Oc1cccc2ccc(Nc3ccccn3)nc12`: the AC50 was 4.98 µM.

In the case of `COC(OC)c1ccc(C#N)c(SCc2ccccc2)n1`, the concentration at half-maximal activity (AC50) is 7.52 µM.

As for `N#Cc1c(-c2ccc(Cl)cc2)n(O)c2ccccc12`, the AC50 is 2.67 µM.

Take `CCCCCCCCCCOC(=O)Cn1c(COc2ccccc2OC)[n+](C)c2ccccc21`: the AC50 is 6.39 µM.

`CC[n+]1c(/C=C/C=C/c2ccc(N(C)C)cc2)sc2ccccc21`: the AC50 is 3.71 µM.

For the molecule `Cc1ccc(NC(=S)c2nc3ccccc3[nH]2)c(C)c1`, the AC50 is 6.15 µM.

With `CN(c1ccccc1)c1nc(N2CCCC2)nc(-n2ccnc2)n1`, the AC50 was 1.04 µM.

As to `O=c1c(O)cccc2cc(O)c(O)c(O)c12`, the AC50 is 3.63 µM.

In the case of `CCOC(=O)c1c2c(n(-c3ccc(OC)cc3)c1C)C(=O)C(=O)c1ccccc1-2`, the half-maximal activity concentration (AC50) was 3.97 µM.

Take `CCCCC(=O)NC(=S)NNC(=O)CCc1ccccc1`: the AC50 was 5.21 µM.

For the molecule `Cc1cccc(C)c1NS(=O)(=O)c1ccc(-c2cnc(C3CC3)o2)cc1`, the AC50 was 6.06 µM.

In the case of `CC1CCN(c2nc(-c3ccncc3)nc3ccccc23)CC1`, the AC50 is 7.47 µM.

As for `O=C(O)c1ccc(N/N=C/C=C/c2ccccc2)cc1`, the AC50 is 3.72 µM.

As for `CCOC(=O)c1ccc(NC(=O)CC2C(=O)OCCN2CC)cc1` (centres undefined), the AC50 was 4.66 µM.

In the case of `O=[N+]([O-])c1ccc(S(=O)(=O)c2ccccc2)nc1`, the AC50 is 2.23 µM.

`CC(=O)Nc1cccc(-c2cc(-c3c(Cl)cccc3Cl)no2)c1`: the AC50 was 3.12 µM.

For `Cc1c(C(=O)O)cccc1-c1ccc(/C=N/Nc2ccc(Br)cc2)o1`, the half-maximal activity concentration (AC50) is 6.31 µM.

Consider `Cc1cc(C(=O)COC(=O)Cc2n[nH]c(=O)c3ccccc23)c(C)n1-c1cccc(C(F)(F)F)c1`, for which the AC50 was 6.72 µM.

With `CCN(CC)c1ccc(/C=N/NC(=O)c2c(Cl)cnn2C)c(O)c1`, the AC50 was 4.78 µM.

Turning to `CN(Cc1ccc(Cl)s1)C(=O)CCl`, the AC50 is 6.37 µM.

For `COC(=O)c1cccc2c1-c1ccccc1/C2=N/O`, the half-maximal activity concentration (AC50) was 4.95 µM.

With `Cc1ccc(C(C[N+](=O)[O-])c2c(N)n(C)c(=O)n(C)c2=O)cc1` (centres undefined), the AC50 is 6.03 µM.

Consider `CC[C@@H](C(=O)[C@@H](C)[C@@H](O)[C@H](C)[C@@H]1O[C@@H]([C@@H](CC)C(=O)O)CC[C@@H]1C)[C@H]1O[C@]2(C=C[C@@H](O)[C@]3(CC[C@@](C)([C@H]4CC[C@](O)(CC)[C@H](C)O4)O3)O2)[C@H](C)C[C@@H]1C`, for which the AC50 was 3 µM.

`O=C1Nc2c(Br)cccc2C1=O`: the AC50 was 11.6 µM.

Take `O=C(c1ccc(-c2ccccc2)c(F)c1)C1CCCN(C(=O)c2cncs2)C1` (centres undefined): the AC50 is 5.68 µM.

With `Cc1ccccc1NC(=O)CSc1ccc(-c2ccccn2)nn1`, the AC50 was 4.42 µM.

Regarding `CCOC(=O)c1cccc2c1-c1ccccc1/C2=N/O`, the AC50 is 6.3 µM.

With `CC1CCN(c2ccc3c(c2)S(=O)(=O)c2ccccc2C3=O)CC1`, the AC50 was 9.89 µM.

As for `CC(NC(=S)NC1CCC(C(C)(C)C)CC1)c1ccccc1` (centres undefined), the half-maximal activity concentration (AC50) was 6.86 µM.

On to `CC(C)N1CCN(c2ccc(OCC3COC(Cn4cncn4)(c4ccc(Cl)cc4Cl)O3)cc2)CC1` (centres undefined), for which the AC50 is 2.01 µM.

Regarding `Cn1ccsc1=NC(=O)c1ccc([N+](=O)[O-])o1`, the AC50 was > 12 µM (inactive).

For the molecule `COc1ccc(/C=N/Nc2cc(C)nc(-n3nc(C)cc3C)n2)cc1`, the AC50 was 5.99 µM.

Take `Oc1c(CN2CCCC2)cc(COCc2ccccc2)c2cccnc12`: the AC50 was 5.55 µM.

On to `CC1(S(=O)(=O)O)CC(=O)c2ccccc2C1=O` (centres undefined), for which the AC50 was > 12 µM (inactive).

As for `Cc1ccc(-c2cc(-c3ccc(C)cc3)[n+](-c3ccccc3)c(-c3ccc(C)cc3)c2)cc1`, the concentration at half-maximal activity (AC50) is 5.4 µM.

With `O=C(Nc1cc(Oc2ccc(Cl)cc2)cc([N+](=O)[O-])c1)c1ccco1`, the AC50 was > 12 µM (inactive).

Turning to `N=c1c2c(-c3ccccc3)c(-c3ccccc3)n(Cc3ccco3)c2ncn1CCCn1ccnc1`, the AC50 was > 12 µM (inactive).

Regarding `CCN(CC)C(=O)CSc1ncnc2sc(-c3ccccc3)cc12`, the AC50 was 8.72 µM.

As for `O=C(CSc1ccc(-c2ccccn2)nn1)NCc1ccccc1`, the AC50 is 6.96 µM.

Turning to `CC1(C(=O)OCC(=O)Nc2ccc3ccccc3c2)CC1(Cl)Cl` (centres undefined), the AC50 is 9.6 µM.

As for `Cc1c(C2(O)CCCCC2)[nH]c2ccc(C(F)(F)F)cc12`, the AC50 is 7.22 µM.

For the molecule `Cc1ccc(NC2=C(NC(=O)c3ccccc3)C(=O)c3ccccc3C2=O)cc1Cl`, the AC50 is 7.65 µM.

As to `CCc1cc(C(=O)Nc2nc(-c3ccccn3)cs2)sc1C`, the AC50 is 4.3 µM.

Take `Cc1ccc(NC2(c3nnnn3-c3c(C)cccc3C)CCCCC2)cc1`: the concentration at half-maximal activity (AC50) is 6.94 µM.

Regarding `CC1CC(C)CC(C)C(O)C(C#N)=CC=CCC(C2CCCC2C(=O)O)OC(=O)CC(O)C(C)C1` (centres undefined), the concentration at half-maximal activity (AC50) is 5.14 µM.

Turning to `OCCN(CCO)c1cc2c3ccccc3ccc2c2ccccc12`, the AC50 was 5.56 µM.

Consider `O=S(=O)(c1ccc(Cl)cc1)N1CCC2(CC1)OCCN2S(=O)(=O)c1cccs1`, for which the half-maximal activity concentration (AC50) was 4.77 µM.

Take `O=C(CSc1ccc(-c2ccccn2)nn1)N1CCCc2ccccc21`: the AC50 was 3.52 µM.

As to `CC1Oc2ccccc2C=C1/C=N/Nc1ccc(C(=O)O)cc1` (centres undefined), the half-maximal activity concentration (AC50) was 10.1 µM.

Turning to `Clc1ccc(-c2n[nH]c3c2CCC3)cc1Cl`, the concentration at half-maximal activity (AC50) is 5.64 µM.

Regarding `CCCn1c2ccccc2c2cc(C(=O)O)ccc21`, the AC50 was 7.09 µM.

For `CN(C)c1ccc(C=c2c3ccccc3n3c2c2c([n+]3C)CCCC2)cc1`, the AC50 was 2.64 µM.

Consider `CSc1nccc(NC(=O)c2ccc(C(C)(C)C)cc2)n1`, for which the half-maximal activity concentration (AC50) was 5.08 µM.

As to `Cc1n[nH]c(C)c1N=Nc1ccc(Br)cc1`, the AC50 was 6.88 µM.

As to `O=C(Oc1c(Cl)cc(Cl)c2cccnc12)c1cccs1`, the AC50 is 1.94 µM.

With `O=C1CC(N2CCCCCC2)C(=O)N1c1ccc2c(c1)OCO2` (centres undefined), the concentration at half-maximal activity (AC50) was 4.18 µM.

Consider `Cc1cccc2sc(NNC(=O)c3ccc(S(=O)(=O)N4CC(C)CC(C)C4)cc3)nc12` (centres undefined), for which the AC50 is 1.65 µM.

In the case of `CNC(=S)Nc1ccc(C23CC4CC(CC(C4)C2)C3)cc1`, the AC50 was 7.25 µM.

Consider `CC(=O)Nc1cccc(NC(=O)CSc2ccc(-c3ccccn3)nn2)c1`, for which the AC50 is 3.64 µM.

`O=C(CSc1ccc(-c2ccccn2)nn1)NCc1ccc(F)cc1`: the AC50 was 4.86 µM.

As for `O=C(N/N=C/c1c(O)n(Cc2ccccc2)c(=O)c2ccccc12)c1cccnc1`, the AC50 is 6.92 µM.

With `Nc1[nH]c(=O)ncc1F`, the AC50 was 1.51 µM.

`O=C(N/N=C(\c1ccccc1)c1cccnc1)c1cccc(F)c1`: the AC50 is 4.97 µM.

For `O=C1/C(=C/c2cccs2)SC(=S)N1NS(=O)(=O)c1ccccc1`, the AC50 is 3.9 µM.

On to `O=c1cnn([C@@H]2O[C@H](CO)[C@@H](O)[C@H]2O)c(=O)[nH]1`, for which the AC50 was > 12 µM (inactive).

For the molecule `CCCOc1ccc2ccccc2c1/C=C1\SC(=O)NC1=O`, the AC50 is 5.65 µM.

As for `COC(=O)C1=NN(C(=O)c2cccc(Br)c2)C(O)(c2ccc(Cl)cc2)C1` (centres undefined), the AC50 was 5.82 µM.

In the case of `Clc1nc(-c2ccccn2)nc2scc(-c3ccccc3)c12`, the AC50 is 5.78 µM.

On to `COc1cc(/C=C2\SC(=S)N(NS(=O)(=O)c3ccc(C)cc3)C2=O)ccc1O`, for which the half-maximal activity concentration (AC50) was 7.05 µM.

As to `O=C(O/N=C(\c1ccccc1)c1ccncc1)c1ccccc1Cl`, the AC50 was > 12 µM (inactive).

`COc1cccc2c1C(=O)c1c(O)c3c(c(O)c1C2=O)C[C@@](O)(C(=O)CO)C[C@@H]3O[C@H]1C[C@H](N)[C@H](O)[C@H](C)O1`: the AC50 was 6.48 µM.

For `O=C1CC(O)(C(F)(F)F)Oc2c1ccc1ccccc21` (centres undefined), the AC50 is 5.78 µM.

`COc1ccc(-c2cc(C(=O)N3CCN(c4ccccc4F)CC3)c3ccccc3n2)c(OC)c1`: the AC50 is 5.68 µM.

Regarding `Oc1c(Br)cc(Br)cc1CNc1ccc(F)cc1`, the AC50 was 6.21 µM.

As for `Cn1nnnc1N=N/C(=N/Nc1ccccc1)c1ccccc1`, the AC50 was 1.85 µM.

Consider `COc1ccc(O)c(C(=O)CC(=O)c2ccc(F)cc2)c1`, for which the concentration at half-maximal activity (AC50) is 0.977 µM.

On to `Cc1ccc(NS(=O)(=O)c2ccc(N3CCN(c4ccc(O)cc4)CC3)c([N+](=O)[O-])c2)c(C)c1`, for which the AC50 was 7.43 µM.

`CN(C(=O)COC(=O)c1ccc([N+](=O)[O-])cc1Cl)C1CCCCC1`: the AC50 is 9.99 µM.

`Cc1ccc(C)c(/C=C/C(=O)c2ccccc(=O)c2O)c1`: the AC50 was 3.17 µM.

Take `CC1=CC(C)(C)N(S(=O)(=O)c2ccc(C)cc2)c2ccc(C)cc21`: the AC50 is 7.54 µM.

For the molecule `CCOC(=O)c1ccc(N2C(=O)CC(N3CCC(O)(c4ccc(Cl)cc4)CC3)C2=O)cc1` (centres undefined), the AC50 was 6.57 µM.

With `CCOc1ccc(N/N=C(/C#N)C(N)=O)cc1`, the AC50 was 4.1 µM.

`O=[N+]([O-])c1cc2oc3c(c2c(C=NCc2ccccc2)c1O)CCCC3`: the AC50 is 0.986 µM.

As to `Oc1ccc(Br)cc1/C=N/Nc1ccccn1`, the AC50 was 5.39 µM.

As to `COc1cccc(CNC(=O)CSc2ccc(-c3ccccn3)nn2)c1`, the AC50 is 5.07 µM.

As to `CCOC(=O)c1cnc(-n2nc(C)cc2C)nc1NC1CCCC1`, the AC50 is 7.65 µM.

In the case of `CCCCNc1c(-c2cccc(Sc3ccc(OC)cc3)c2)nc2ccccn12`, the AC50 was 8.12 µM.

`CCC(C)n1ncn(-c2ccc(N3CCN(c4ccc(OCC5COC(Cn6cncn6)(c6ccc(Cl)cc6Cl)O5)cc4)CC3)cc2)c1=O` (centres undefined): the AC50 is 0.129 µM.

Consider `O=C(COC(=O)c1ccc([N+](=O)[O-])o1)NC12CC3CC(CC(C3)C1)C2`, for which the AC50 was > 12 µM (inactive).

With `O=C(CC1CC2CCC1C2)Nc1nc(-c2ccccn2)cs1` (centres undefined), the AC50 is 5.1 µM.

In the case of `CCN(CC)c1ccc(/C=C/c2ccc3ccc(OC)cc3[n+]2CC)cc1`, the AC50 is 5.78 µM.

For the molecule `CCCCCCCN1N=C(C)C(C(=O)c2ccccc2)C1=O` (centres undefined), the AC50 was 3.73 µM.

For the molecule `Oc1c(Br)cc(-c2ccccc2)cc1Br`, the AC50 is 4.93 µM.

Turning to `Cc1ccc(-n2nnnc2SCC(=O)N2CCc3ccccc3C2)c(C)c1`, the concentration at half-maximal activity (AC50) was 5.8 µM.
